Assay: xn = mol fraction of the nth substance listed
Conditions: 100 kPa

CC(=O)[O-].Cn1cc[n+](CCO)c1 + O
viscosity [mPa·s]
Conditions | 288.15 K | 293.15 K | 298.15 K | 303.15 K | 308.15 K | 313.15 K | 318.15 K | 323.15 K | 328.15 K | 333.15 K
x1 = 0.8317 | 73.1 | 54.2 | – | – | – | 20.52 | 16.8 | 13.96 | 11.73 | 9.95
x1 = 0.8632 | 95.7 | 71.8 | 53.8 | 41.9 | 32.2 | – | 20.74 | 17.07 | 14.25 | 12.06
x1 = 0.8712 | 102.6 | 74.7 | – | – | 33.3 | – | 21.56 | 17.7 | – | 12.4
x1 = 0.8818 | 112.8 | 83.4 | 62 | 47.1 | – | – | 23.58 | – | 16.02 | –
x1 = 0.9003 | 127.4 | – | 69.5 | 52.7 | 40.8 | 32.2 | 25.9 | 21.33 | 17.64 | –

CCC(=O)[O-].C[n+]1ccn(CCO)c1 + O
viscosity [mPa·s]
Conditions | 288.15 K | 293.15 K | 298.15 K | 303.15 K | 308.15 K | 313.15 K | 318.15 K | 323.15 K | 328.15 K | 333.15 K
x1 = 0.7595 | 173 | 126 | – | 70.4 | 57.5 | 45.1 | 36.6 | 30.3 | 25.1 | 21.1
x1 = 0.8082 | 194 | 145 | 108.2 | 80.5 | 65.2 | 48.5 | 38.9 | – | – | 22.2
x1 = 0.842 | 217 | 157 | – | 88.5 | 68.6 | 50.9 | – | 33.2 | 28.2 | 22.7
x1 = 0.8991 | 243 | 178 | 132 | 101.3 | – | 54 | 42.9 | – | 30.2 | –
x1 = 0.9102 | 248 | 184 | 136 | 103.7 | 78.5 | 54.9 | 43.6 | 35.1 | – | 23.9

From a compilation of properties of binary mixtures (doi:10.1016/j.jct.2022.106909)
